Data from US9566290B2, “Boron-containing small molecules” (Anacor Pharmaceuticals, Inc., priority 2005, dated 2017).
Converted amounts (≈) assume the structure as drawn. “And” between values parts separate entries of the source, which are not always exact repeats. Identical values can stand only once. “Also recorded” adds a separate entry of the source. Like-named read-outs stand apart in the source and are kept apart here.

What was measured:
[1] = test system: Trichophyton rubrum (T. rubrum); experiment: TurChub zone of inhibition assay through full thickness human nail; format: cell-based; details: 40 μL/cm^2 per day over five days
Procedure: The aim of the current study was to assess and compare the perungual absorption of C10 in a simple vehicle using MedPharm's TurChub® model (see http://www.medpharm.co.uk; specificaly http://www.medpharm.co.uk/downloads/Skin%20and%20nail%2dec%202003.pdf viewed Feb. 14, 2006). in a full scale experiment. Six replicates involving C10 were conducted and Formulations Y (8% ciclopirox w/w in commercial lacquer) and Z (Loceryl, 5% amorolfine w/v in commercial lacquer) were used as the reference formulations.
A dose of 40 μL/cm^2 of the test compound C10 in 50:50 propylene glycol:ethyl acetate was applied to a full thickness nail sample each day over a total duration of five days. Both the reference formulations were also applied at the same dose.
Placebo, test item C10 in vehicle and the reference formulations Y and Z were tested for their inhibition of Trichophyton rubrum (T. rubrum) growth after penetration through a full thickness human nail using a zone of inhibition measurement.

[2] = Solubility in pre-saturated n-octanol or water, visual inspection; format: physicochemical
Procedure: N-Octanol and water were mutually pre-saturated by vigorously stirring a mixture of both solvents for up to 12 h and the mixture was allowed to separate. Solubility in each solvent was determined by adding 10 μL of 20, 40, 200, 1000 and 5000 μg/mL of C10 in DMSO to the pre-saturated n-octanol or water. After the sample was vortexed for 10 sec, the sample was centrifuged for 10 min at ca. 3000 rpm. A visual inspection was made to determine if the sample was clear or if a pellet had formed on the bottom of the tube.

[3] = test system: Saccharomyces cerevisiae strain ATCC 201388; experiment: MIC (NCCLS M27, YPD or synthetic defined media), haploid parental strain; format: cell-based; details: Saccharomyces cerevisiae, read-out: MIC
Procedure: (§1) The haploid Saccharomyces cerevisiae strain ATCC 201388 was used in the selection of C10 resistant mutants. Spontaneous and EMS-induced resistant mutants were isolated from YPD agar plates containing 4×, 8×, 16×MIC of C10. All minimal inhibitory concentrations (MIC) were determined using NCCLS protocol M27 with the exception of using YPD or synthetic defined media. All yeast and molecular genetic manipulations were essentially performed as described by Guthrie C., et al., Methods in Enzymology, 350: Part B, (2002).
(§2) The minimal inhibitory concentration (MIC) was essentially performed following the NCCLS guidelines outlined in the M27 protocol with the exception of using YPD or synthetic defined media (SDM).

[4] = test system: S. cerevisiae C10 resistant mutants (CDC60 editing domain mutations); experiment: MIC (NCCLS M27), spontaneous and EMS induced C10 resistant mutants; format: cell-based, Saccharomyces cerevisiae; details: for MIC: Saccharomyces cerevisiae
Procedure: as §1
Resistant mutants appeared after 2 d incubation at 30° C. Frequency of resistance was determined by dividing the number of resistant mutants by the total number of cells plated as determined by plating dilutions of the overnight culture on YPD plates.
A 2.5 mL of the overnight culture, which was grown in YPD media, was centrifuged at 700×g for 5 minutes. The cell pellet was resuspended in 10 mL 50 mM potassium phosphate buffer, pH 7.0. The cell suspension was centrifuged again and the cell pellet was resuspended in phosphate buffer to obtain a cell density of 5×10^7 cells/mL as determined by counting the cells using a Petroff Hausser Counting Chamber (Horsham, Pa. USA). The cell suspension was shaken with 300 μL of EMS (Alfa Aesar, Ward Hill, Mass., USA) for 30 min. at 30° C. The mutagenesis was stopped by adding 10% (w/v) sodium thiosulfate (Sigma-Aldrich, St. Louis, Mo., USA), and the cells were pelleted by centrifugation at 700×g for 5 min. and resuspended in 1 mL sterile H2O. This was repeated once more before the cells were plated on YPD agar plates containing 1.6 μg/mL of C10.
as §2

[5] = test system: S. cerevisiae ATCC201388 bearing pRS425 or CDC60 on pRS425; experiment: MIC with over-expression of wild type CDC60; format: cell-based, Saccharomyces cerevisiae; details: for MIC: Saccharomyces cerevisiae
Source text: as §2
A 4.0 kb BamH I-Sal I DNA fragment containing the entire CDC60 open reading frame (ORF) and 700 bp of upstream sequence was amplified using KOD DNA polymerase, S. cerevisiae genomic DNA (Novagen, Madison, Wis., USA), and the primers GAGGGATCCGGTTAGTTTTAGTTCGCGAGTGACCTG and GAGGTCGACGATTTCTGGTTGCTGTTTATTGATCTT (Operon, Alameda, Calif., USA). This DNA fragment was then cloned into the […] multi-copy plasmid pRS425, and transformed into S. cerevisiae ATCC201388 (Gietz, R D et al., Methods in Enzymology 305: 87-96 (2002)).

For `OB1OCc2cc(F)ccc21` [C10, 5-fluorobenzo[c][1,2]oxaborol-1(3H)-ol], the “zone of inhibition, result in words” value ([1]; full thickness nail) was “superior results vs. the commercial reference formulations Y and Z”, the Zones of inhibition ([1]; C10 10% w/v solution, second experiment (FIG. 7), six cells) was 74% and 86% and 100% and 82% and 84% and the “solubility in octanol and water, in words” value ([2]; over the concentration range tested) was “very good”. The “Solubility, Octanol Visual” value ([2]; targeted conc 0.800 μg/mL) was “Clear”, the “Solubility, Water Visual” value ([2]; targeted conc 0.800 μg/mL) was “Clear” and the “Solubility, Octanol Visual” value ([2]; targeted conc 4.00 μg/mL) was “Clear”. The “Solubility, Water Visual” value ([2]; targeted conc 4.00 μg/mL) was “Clear”, the “Solubility, Octanol Visual” value ([2]; targeted conc 20.0 μg/mL) was “Clear” and the “Solubility, Water Visual” value ([2]; targeted conc 20.0 μg/mL) was “Clear”. For the same molecule, the “Solubility, Octanol Visual” value ([2]; targeted conc 100 μg/mL) was “Clear”, the “Solubility, Water Visual” value ([2]; targeted conc 100 μg/mL) was “Clear” and the MIC ([3]; ATCC201388, Table 1, haploid strain ATCC201388) was 0.5 µg/mL (≈ 3.29 µM). The MIC ([3]; ATCC201388, Table 2, ATCC201388) was 0.5 µg/mL (≈ 3.29 µM), the “increase in resistance (MIC) of resistant mutants over wildtype” value ([4]; 11 C10 resistant mutants) was 8-64 fold and the “increased resistance over wildtype in the minimal inhibitory concentration test” value ([4]; 23 C10 resistant mutants (Example 41)) was 8-64 fold. The MIC ([4]; Table 1, mutant (A), CDC60 N415D) was 4 µg/mL (≈ 26.3 µM), the MIC ([4]; Table 1, mutant (B), CDC60 R316I) was 16 µg/mL (≈ 105 µM) and the MIC ([4]; Table 1, mutant (C), CDC60 C326F) was 16 µg/mL (≈ 105 µM). For the same molecule, the MIC ([4]; Table 1, mutant (D), CDC60 G405V) was 32 µg/mL (≈ 211 µM), the MIC ([4]; Table 1, mutant (E), CDC60 C326R) was 16 µg/mL (≈ 105 µM) and the MIC ([4]; Table 1, mutant (F), CDC60 D487G) was 32 µg/mL (≈ 211 µM). It also gave an MIC ([4]; Table 1, mutant (G), CDC60 L315V) of 32 µg/mL (≈ 211 µM), an MIC ([4]; Table 1, mutant (H), CDC60 T314M) of 32 µg/mL (≈ 211 µM) and an MIC ([4]; Table 1, mutant (I), CDC60 S416L) of 32 µg/mL (≈ 211 µM). It also gave an MIC ([4]; Table 1, mutant (J), CDC60 D487N) of 32 µg/mL (≈ 211 µM), an MIC ([4]; Table 1, mutant (K), CDC60 T319I) of 32 µg/mL (≈ 211 µM) and an MIC ([4]; Table 2, C10 resistant mutant (C)) of 16 µg/mL (≈ 105 µM). For the same molecule, the MIC ([4]; Table 2, C10 resistant mutant (G)) was 16 µg/mL (≈ 105 µM), the MIC ([4]; Table 2, C10 resistant mutant (H)) was 16 µg/mL (≈ 105 µM) and the “increase in resistance (MIC) with additional copies of CDC60” value ([5]; CDC60 on multi-copy 2 μM plasmid versus same strain bearing pRS425) was “eight times more resistant; also recorded: eight times higher; also recorded: eight-fold”. For the same molecule, the MIC ([5]; ATCC201388, CDC60 on pRS425 (20 copies)) was 1 µg/mL (≈ 6.58 µM) and the MIC ([5]; ATCC201388, pRS425 Plasmid control) was 0.125 µg/mL (≈ 0.823 µM).
